Test results as given in US20070128217A1 (priority 2003, published 2007).

Legend:
[1] = system: control sera (pooled serum of ten healthy LUMC hospital workers; commercial negative donor pooled serum from the Dutch bloodbank); type: binding, human; parameters: Binding of Control serum LUMC to linear peptides / Binding of Control serum Blood-bank to linear peptides / Binding of Control serum LUMC to looped peptides / Binding of Control Serum Blood-Bank to Looped peptides / Binding of Control serum LUMC to linear peptides of the protein M of SARS-CoV Urbani / Binding of Control serum Blood-bank to linear peptides of the protein M of SARS-CoV Urbani / Binding of Control serum LUMC to looped peptides of the protein M of SARS-CoV Urbani / Binding of Control Serum Blood-Bank to Looped peptides of the protein M of SARS-CoV Urbani: unit not given here
[2] = system: antibodies in sera from SARS patients (sera 1a, 1b, 2, 6, 37, 62, London, SARS-yellow, SARS-green); type: binding, human; parameters: Binding of serum 6 to linear peptides of protein X1 of SARS-CoV Urbani / Binding of serum 37 to linear peptides of protein X1 of SARS-CoV Urbani / Binding of serum 6 to looped/cyclic peptide (PEPSCAN-ELISA) / Binding of serum 37 to looped/cyclic peptide (PEPSCAN-ELISA) / Binding of serum 37 to looped/cyclic peptides of protein X1 of SARS-CoV Urbani / Binding of serum 6 to linear peptides of protein X2 / Binding of serum 37 to linear peptides of protein X2 / Binding of serum 37 to looped/cyclic peptides of protein X2 of SARS-CoV Urbani / Binding of serum 6 to linear peptides of protein M of SARS-CoV Urbani / Binding of serum 37 to linear peptides of protein M of SARS-CoV Urbani / Binding of serum 6 to looped/cyclic peptides of protein M of SARS-CoV Urbani / Binding of serum 37 to looped/cyclic peptides of protein M of SARS-CoV Urbani / Binding of serum 6 to linear peptides of protein X3 of SARS-CoV Urbani / Binding of serum 37 to linear peptides of protein X3 of SARS-CoV Urbani / Binding of serum 37 to looped/cyclic peptides of protein X3 of SARS-CoV Urbani / Binding of serum 6 to linear peptides of protein X4 of SARS-CoV Urbani / Binding of serum 37 to linear peptides of protein X4 of SARS-CoV Urbani / Binding of serum 37 to looped/cyclic peptides of protein X4 of SARS-CoV Urbani / Binding of serum 6 to linear peptides of protein X5 of SARS-CoV Urbani / Binding of serum 37 to linear peptides of protein X5 of SARS-CoV Urbani / Binding of serum 37 to looped/cyclic peptides of protein X5 of SARS-CoV Urbani / Binding of serum 6 to linear peptides of protein N of SARS-CoV Urbani / Binding of serum 37 to linear peptides of protein N of SARS-CoV Urbani / Binding of serum 6 to linear peptide (PEPSCAN-ELISA) / Binding of serum 1a to looped/cyclic peptides of protein N of SARS-CoV Urbani / Binding of serum 1b to looped/cyclic peptides of protein N of SARS-CoV Urbani / Binding of serum 2 to looped/cyclic peptides of protein N of SARS-CoV Urbani / Binding of serum 6 to looped/cyclic peptides of protein N of SARS-CoV Urbani / Binding of serum 37 to looped/cyclic peptides of protein N of SARS-CoV Urbani / Binding of serum 62 to looped/cyclic peptides of protein N of SARS-CoV Urbani / Binding of serum London to looped/cyclic peptides of protein N of SARS-CoV Urbani / Binding of serum SARS-green to looped/cyclic peptides of protein N of SARS-CoV Urbani: unit not given here
[3] = system: rabbit serum obtained by immunizing a rabbit with the SARS-CoV strain Frankfurt 1; type: binding; parameters: Binding of a rabbit serum to linear peptides / Binding of a rabbit serum to looped peptides / Rabbit serum linear peptides / Rabbit serum looped peptides / Binding of a rabbit serum to linear peptides of protein N of SARS-CoV Urbani (Rabbit serum linear peptides) / Binding of a rabbit serum to looped/cyclic peptides of protein N of SARS-CoV Urbani (Rabbit serum looped peptides): unit not given here

RLFARTRSMWSFNPE
0.5: Binding of Control serum LUMC to linear peptides of the protein M of SARS-CoV Urbani [1] | Binding of Control serum LUMC to looped peptides of the protein M of SARS-CoV Urbani [1] | Binding of serum 2 to looped/cyclic peptides of protein M of SARS-CoV Urbani [2] | Binding of serum SARS-green to linear peptides of protein M of SARS-CoV Urbani [2]
0.8: Binding of Control serum Blood-bank to linear peptides of the protein M of SARS-CoV Urbani [1] | Binding of serum 1b to looped/cyclic peptides of protein M of SARS-CoV Urbani [2] | Binding of serum 6 to looped/cyclic peptides of protein M of SARS-CoV Urbani [2]
0.4: Binding of serum 6 to linear peptides of protein M of SARS-CoV Urbani [2] | Binding of serum London to linear peptides of protein M of SARS-CoV Urbani [2] | Binding of serum SARS-green to looped/cyclic peptides of protein M of SARS-CoV Urbani [2] | Binding of serum SARS-yellow to looped/cyclic peptides of protein M of SARS-CoV Urbani [2] | Rabbit serum linear peptides [3]
0.7: Binding of Control Serum Blood-Bank to Looped peptides of the protein M of SARS-CoV Urbani [1] | Binding of serum 1a to looped/cyclic peptides of protein M of SARS-CoV Urbani [2]
0.9: Binding of serum 1a to linear peptides of protein M of SARS-CoV Urbani [2] | Binding of serum 1b to linear peptides of protein M of SARS-CoV Urbani [2] | Binding of serum 62 to linear peptides of protein M of SARS-CoV Urbani [2]
1.0: Binding of serum 37 to linear peptides of protein M of SARS-CoV Urbani [2]
0.6: Binding of serum 2 to linear peptides of protein M of SARS-CoV Urbani [2] | Binding of serum 37 to looped/cyclic peptides of protein M of SARS-CoV Urbani [2] | Binding of serum 62 to looped/cyclic peptides of protein M of SARS-CoV Urbani [2]
0.0: Rabbit serum looped peptides [3]
0.1: Binding of serum SARS-yellow to linear peptides of protein M of SARS-CoV Urbani [2]
0.2: Binding of serum London to looped/cyclic peptides of protein M of SARS-CoV Urbani [2]

RQEEVQQELYSPLFL
recognized in looped/cyclic form: Recognition of the peptide by sera of SARS-CoV infected individuals, and form (linear, looped/cyclic) in which it is recognized [2]
0.5: Binding of serum 2 to linear peptides of protein X4 of SARS-CoV Urbani [2] | Binding of serum 6 to linear peptides of protein X4 of SARS-CoV Urbani [2] | Rabbit serum linear peptides [3]
0.8: Binding of Control Serum Blood-Bank to Looped peptides [1] | Binding of serum 1a to linear peptides of protein X4 of SARS-CoV Urbani [2] | Binding of serum 37 to linear peptides of protein X4 of SARS-CoV Urbani [2] | Binding of serum 62 to linear peptides of protein X4 of SARS-CoV Urbani [2]
0.6: Binding of Control serum LUMC to linear peptides [1] | Binding of serum 1b to linear peptides of protein X4 of SARS-CoV Urbani [2] | Rabbit serum looped peptides [3]
0.9: Binding of Control serum LUMC to looped peptides [1]
0.7: Binding of Control serum Blood-bank to linear peptides [1] | Binding of serum London to linear peptides of protein X4 of SARS-CoV Urbani [2] | Binding of serum SARS-green to linear peptides of protein X4 of SARS-CoV Urbani [2] | Binding of serum SARS-yellow to linear peptides of protein X4 of SARS-CoV Urbani [2]

LFMRFFTLGSITAQP
0.6: Binding of Control serum LUMC to linear peptides [1] | Binding of serum 2 to linear peptides of protein X1 of SARS-CoV Urbani [2] | Binding of serum 37 to linear peptides of protein X1 of SARS-CoV Urbani [2] | Binding of serum 62 to linear peptides of protein X1 of SARS-CoV Urbani [2] | Binding of serum SARS-yellow to linear peptides of protein X1 of SARS-CoV Urbani [2]
0.5: Binding of Control serum LUMC to looped peptides [1] | Binding of serum 1a to looped/cyclic peptide (PEPSCAN-ELISA) [2] | Binding of serum 6 to linear peptides of protein X1 of SARS-CoV Urbani [2] | Binding of serum 37 to looped/cyclic peptide (PEPSCAN-ELISA) [2] | Binding of serum 62 to looped/cyclic peptide (PEPSCAN-ELISA) [2] | Binding of a rabbit serum to linear peptides [3]
0.7: Binding of Control Serum Blood-Bank to Looped peptides [1] | Binding of Control serum Blood-bank to linear peptides [1] | Binding of serum 1b to linear peptides of protein X1 of SARS-CoV Urbani [2]
0.8: Binding of serum 1a to linear peptides of protein X1 of SARS-CoV Urbani [2]
0.3: Binding of serum 1b to looped/cyclic peptide (PEPSCAN-ELISA) [2] | Binding of serum 6 to looped/cyclic peptide (PEPSCAN-ELISA) [2] | Binding of serum London to linear peptides of protein X1 of SARS-CoV Urbani [2] | Binding of serum SARS-green to looped/cyclic peptide (PEPSCAN-ELISA) [2]
0.2: Binding of serum London to looped/cyclic peptide (PEPSCAN-ELISA) [2] | Binding of serum SARS-green to linear peptides of protein X1 of SARS-CoV Urbani [2]
0.4: Binding of serum 2 to looped/cyclic peptide (PEPSCAN-ELISA) [2] | Binding of serum SARS-yellow to looped/cyclic peptide (PEPSCAN-ELISA) [2] | Binding of a rabbit serum to looped peptides [3]

RMCKYTQSTALQELL
0.8: Binding of Control serum Blood-bank to linear peptides [1] | Binding of serum 1a to linear peptides of protein X2 [2] | Binding of serum 62 to linear peptides of protein X2 [2]
0.3: Binding of serum 6 to looped/cyclic peptides of protein X2 of SARS-CoV Urbani [2] | Binding of serum SARS-yellow to looped/cyclic peptides of protein X2 of SARS-CoV Urbani [2]
0.7: Binding of Control Serum Blood-Bank to Looped peptides [1] | Binding of Control serum LUMC to linear peptides [1] | Binding of serum 1a to looped/cyclic peptides of protein X2 of SARS-CoV Urbani [2] | Binding of serum 1b to linear peptides of protein X2 [2] | Binding of serum 1b to looped/cyclic peptides of protein X2 of SARS-CoV Urbani [2] | Binding of serum 37 to linear peptides of protein X2 [2] | Binding of serum 62 to looped/cyclic peptides of protein X2 of SARS-CoV Urbani [2]
0.6: Binding of Control serum LUMC to looped peptides [1] | Binding of serum SARS-green to linear peptides of protein X2 [2] | Binding of serum SARS-green to looped/cyclic peptides of protein X2 of SARS-CoV Urbani [2] | Binding of serum SARS-yellow to linear peptides of protein X2 [2]
0.4: Binding of serum 2 to looped/cyclic peptides of protein X2 of SARS-CoV Urbani [2] | Binding of serum 6 to linear peptides of protein X2 [2] | Binding of serum 37 to looped/cyclic peptides of protein X2 of SARS-CoV Urbani [2] | Binding of a rabbit serum to linear peptides [3] | Binding of a rabbit serum to looped peptides [3]
0.5: Binding of serum 2 to linear peptides of protein X2 [2] | Binding of serum London to linear peptides of protein X2 [2]
0.2: Binding of serum London to looped/cyclic peptides of protein X2 of SARS-CoV Urbani [2]

LACLCKHKKVSTNLC
0.8: Binding of Control serum Blood-bank to linear peptides [1]
0.7: Binding of Control serum LUMC to linear peptides [1]
0.4: Binding of Control serum LUMC to looped peptides [1] | Binding of serum 62 to looped/cyclic peptides of protein X2 of SARS-CoV Urbani [2]
0.2: Binding of serum 2 to looped/cyclic peptides of protein X2 of SARS-CoV Urbani [2] | Binding of serum 6 to looped/cyclic peptides of protein X2 of SARS-CoV Urbani [2] | Binding of serum London to looped/cyclic peptides of protein X2 of SARS-CoV Urbani [2] | Binding of serum SARS-green to looped/cyclic peptides of protein X2 of SARS-CoV Urbani [2]
0.3: Binding of Control Serum Blood-Bank to Looped peptides [1] | Binding of serum 1a to looped/cyclic peptides of protein X2 of SARS-CoV Urbani [2] | Binding of serum 1b to looped/cyclic peptides of protein X2 of SARS-CoV Urbani [2] | Binding of serum 37 to looped/cyclic peptides of protein X2 of SARS-CoV Urbani [2] | Binding of serum SARS-yellow to looped/cyclic peptides of protein X2 of SARS-CoV Urbani [2] | Binding of a rabbit serum to linear peptides [3] | Binding of a rabbit serum to looped peptides [3]
recognized in linear form: Recognition of the peptide by sera of SARS-CoV infected individuals, and form (linear, looped/cyclic) in which it is recognized [2]

IQLSLLKVTAFQHQN
0.6: Binding of Control Serum Blood-Bank to Looped peptides [1] | Binding of Control serum LUMC to looped peptides [1] | Binding of serum 1b to looped/cyclic peptides of protein X2 of SARS-CoV Urbani [2] | Binding of serum 37 to linear peptides of protein X2 [2] | Binding of serum 62 to looped/cyclic peptides of protein X2 of SARS-CoV Urbani [2] | Binding of a rabbit serum to linear peptides [3]
0.5: Binding of serum 1a to linear peptides of protein X2 [2] | Binding of serum 1a to looped/cyclic peptides of protein X2 of SARS-CoV Urbani [2] | Binding of serum 6 to linear peptides of protein X2 [2] | Binding of serum SARS-yellow to looped/cyclic peptides of protein X2 of SARS-CoV Urbani [2] | Binding of a rabbit serum to looped peptides [3]
0.3: Binding of serum 2 to looped/cyclic peptides of protein X2 of SARS-CoV Urbani [2] | Binding of serum 62 to linear peptides of protein X2 [2] | Binding of serum London to linear peptides of protein X2 [2] | Binding of serum SARS-yellow to linear peptides of protein X2 [2]
0.7: Binding of Control serum LUMC to linear peptides [1]
0.4: Binding of Control serum Blood-bank to linear peptides [1] | Binding of serum 1b to linear peptides of protein X2 [2] | Binding of serum 2 to linear peptides of protein X2 [2] | Binding of serum 6 to looped/cyclic peptides of protein X2 of SARS-CoV Urbani [2] | Binding of serum 37 to looped/cyclic peptides of protein X2 of SARS-CoV Urbani [2]
0.2: Binding of serum London to looped/cyclic peptides of protein X2 of SARS-CoV Urbani [2] | Binding of serum SARS-green to linear peptides of protein X2 [2] | Binding of serum SARS-green to looped/cyclic peptides of protein X2 of SARS-CoV Urbani [2]
